# According to patent publication US20240246940A1, “HETEROARYL DERIVATIVE COMPOUND AND USE THEREOF” (VORONOI INC., priority 2021, published 2024):
# How the values were obtained:
# [1] = system: SK-BR-3 cells (HER2 overexpressing cell line); test: SK-BR-3 cell proliferation inhibitory activity (CellTiter-Glo, 120 hours); format: cell-based; settings: Homo sapiens
# Procedure, shortened: (§1)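 Plate cells (HaCaT 3000/well, others 5000/well), then allow 24 h or 48 h before dosing, with the longer wait for SK-BR-3 and BT-474. Add compounds as 3-fold series, or 5-fold for N-87, at 11 concentrations each. Read viability luminescence, compute growth % against control and derive GI50.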
# [2] = system: HaCaT cells (EGFR expressing cell line); test: HaCaT cell proliferation inhibitory activity (CellTiter-Glo, 72 hours); format: cell-based; settings: Homo sapiens
# Procedure, shortened: as §1
SMILES,GI50 [1],GI50 [2]
"C=CC(=O)N1CCC(Oc2cc3c(Nc4cc(-c5cnco5)ccc4OC)ncnc3cc2OC)CC1 [Example 130, 1-(4-((7-methoxy-4-((2-methoxy-5-(oxazol-5-yl)phenyl)amino)quinazolin-6-yl)oxy)piperidin-1-yl)prop-2-en-1-one]",150 to 1000 nM,150 to 1000 nM
"C=CC(=O)N1CCC(Oc2cc3c(Nc4cc(-c5ccc(C)cc5F)ccc4OC)ncnc3cc2OC)CC1 [Example 131, 1-(4-((4-((2′-fluoro-4-methoxy-4′-methyl-[1,1′-biphenyl]-3-yl)amino)-7-methoxy-quinazolin-6-yl)oxy)piperidin-1-yl)prop-2-en-1-one]",150 to 1000 nM,150 to 1000 nM
"C=CC(=O)N1CC[C@H](Oc2cc3c(Nc4cc(-c5ccco5)ccc4OC)ncnc3cc2OC)C1 [Example 132, (S)-1-(3-((4-((5-(furan-2-yl)-2-methoxyphenyl)amino)-7-methoxy-quinazolin-6-yl)oxy)pyrrolidin-1-yl)prop-2-en-1-one]",> 1000 nM,150 to 1000 nM
"C=CC(=O)N1CCC(Oc2cc3c(Nc4cc(-c5ccc(F)nc5)ccc4OC)ncnc3cc2OC)CC1 [Example 133, 1-(4-((4-((5-(6-fluoropyridin-3-yl)-2-methoxyphenyl)amino)-7-methoxy-quinazolin-6-yl)oxy)piperidin-1-yl)prop-2-en-1-one]",150 to 1000 nM,150 to 1000 nM
"C=CC(=O)N1CCC(Oc2cc3c(Nc4cc(-c5cccc(C#N)c5F)ccc4OC)ncnc3cc2OC)CC1 [Example 134, 3′-((6-((1-acryloyl-piperidin-4-yl)oxy)-7-methoxy-quinazolin-4-yl)amino)-2-fluoro-4′-methoxy-[1,1′-biphenyl]-3-carbonitrile]",150 to 1000 nM,150 to 1000 nM
"C=CC(=O)N1CCC(Oc2cc3c(Nc4cc(-c5cccc(Cl)c5F)ccc4OC)ncnc3cc2OC)CC1 [Example 135, 1-(4-((4-((3′-chloro-2′-fluoro-4-methoxy-[1,1′-biphenyl]-3-yl)amino)-7-methoxy-quinazolin-6-yl)oxy)piperidin-1-yl)prop-2-en-1-one]",150 to 1000 nM,150 to 1000 nM
"C=CC(=O)N1CCC(F)(F)C(Oc2cc3c(Nc4cc(-c5ccc(F)cc5F)ccc4OC)ncnc3cc2OC)C1 (stereo not shown) [Example 141, 1-(3-((4-((2′,4′-difluoro-4-methoxy-[1,1′-biphenyl]-3-yl)amino)-7-methoxy-quinazolin-6-yl)oxy)-4,4-difluoro-piperidin-1-yl)prop-2-en-1-one]",> 1000 nM,150 to 1000 nM

# Further lines, with some results ahead:
GI50 [1],SMILES,GI50 [2]
150 to 1000 nM,"C=CC(=O)N1CC(Oc2cc3c(Nc4cc(-c5cccc6ncnn56)ccc4OC)ncnc3cc2OC)C1 [Example 128, 1-(3-((4-((5-([1,2,4]triazolo[1,5-a]pyridin-5-yl)-2-methoxyphenyl)amino)-7-methoxy-quinazolin-6-yl)oxy)azetidin-1-yl)prop-2-en-1-one]",150 to 1000 nM
≤ 150 nM,"C=CC(=O)N1CCC(Oc2cc3c(Nc4cc(-c5ccccc5F)ccc4OC)ncnc3cc2OC)CC1 [Example 136, 1-(4-((4-((2′-fluoro-4-methoxy-[1,1′-biphenyl]-3-yl)amino)-7-methoxy-quinazolin-6-yl)oxy)piperidin-1-yl)prop-2-en-1-one]",≤ 150 nM
≤ 150 nM,"C=CC(=O)N1CCC(Oc2cc3c(Nc4cc(-c5cccc(F)c5F)ccc4OC)ncnc3cc2OC)CC1 [Example 137, 1-(4-((4-((2′,3′-difluoro-4-methoxy-[1,1′-biphenyl]-3-yl)amino)-7-methoxy-quinazolin-6-yl)oxy)piperidin-1-yl)prop-2-en-1-one]",≤ 150 nM
≤ 150 nM,"C=CC(=O)N1CCC(Oc2cc3c(Nc4cc(-c5cccs5)ccc4OC)ncnc3cc2OC)C(F)C1 (stereo not shown) [Example 144, 1-(3-fluoro-4-((7-methoxy-4-((2-methoxy-5-(thiophen-2-yl)phenyl)amino)quinazolin-6-yl)oxy)piperidin-1-yl)prop-2-en-1-one]",≤ 150 nM
